Legend:
[1] = target: Potassium-transporting ATPase (Sus scrofa, UniProt P19156); experiment: In vitro inhibition against H+/K+ ATPase from porcine gastric mucosal membrane vesicles; type: tissue-based, Gastric mucosa
[2] = target: T1, Potassium-transporting ATPase (Rattus norvegicus) (UniProt P09626+P18598); experiment: Gastric antisecretory activity was tested in rats at 30 mg/kg, po expressed as the percentage of inhibition against the acid output of the control group; type: functional, organism-based; set-up: dose 30 mg/kg
[3] = target: T1, Potassium-transporting ATPase (Rattus norvegicus); experiment: Effect in vivo on gastric H+/K+ ATPase activity at 24 hrs following intraduodenal administration of 40 mg/Kg in rats injected intraperitoneally with 1 mg/Kg of cycloheximide; type: functional, organism-based; details: Stomach
[4] = target: T1, Potassium-transporting ATPase (Rattus norvegicus); experiment: Effect in vivo on gastric H+/K+ ATPase activity at 10 hrs following intraduodenal administration of 40 mg/Kg in rats injected intraperitoneally with 1 mg/Kg of cycloheximide; type: functional, organism-based; details: Stomach
[5] = target: T1, Potassium-transporting ATPase (Rattus norvegicus); experiment: Effect in vivo on gastric H+/K+ ATPase activity at 3 hrs following intraduodenal administration of 40 mg/Kg in rats; type: functional, organism-based; details: Stomach
[6] = target: T1, Potassium-transporting ATPase (Rattus norvegicus); experiment: Effect in vivo on gastric H+/K+ ATPase activity at 24 hrs following intraduodenal administration of 40 mg/Kg in rats; type: functional, organism-based; details: Stomach
[7] = target: T1, Potassium-transporting ATPase (Rattus norvegicus); experiment: Effect in vivo on gastric H+/K+ ATPase activity at 6 hrs following intraduodenal administration of 40 mg/Kg in rats; type: functional, organism-based; details: Stomach
[8] = target: T1, Potassium-transporting ATPase (Rattus norvegicus); experiment: Effect in vivo on gastric H+/K+ ATPase activity at 1.5 hrs following intraduodenal administration of 40 mg/Kg in rats; type: functional, organism-based; details: Stomach
[9] = target: T1, Potassium-transporting ATPase (Rattus norvegicus); experiment: Effect in vivo on gastric H+/K+ ATPase activity at 10 hrs following intraduodenal administration of 40 mg/Kg in rats; type: functional, organism-based; details: Stomach
[10] = target: T1, Potassium-transporting ATPase (Rattus norvegicus); experiment: Effect in vivo on gastric H+/K+ ATPase activity at 48 hrs following intraduodenal administration of 40 mg/Kg in rats injected intraperitoneally with 1 mg/Kg of cycloheximide; type: functional, organism-based; details: Stomach
[11] = target: T1, Potassium-transporting ATPase (Rattus norvegicus); experiment: Effect in vivo on gastric H+/K+ -ATPase activity at 6 hrs following intraduodenal administration of 40 mg/Kg in rats; type: functional, organism-based; details: Stomach
[12] = target: T1, Potassium-transporting ATPase (Rattus norvegicus); experiment: Effect in vivo on gastric H+/K+ -ATPase activity at 48 hrs following intraduodenal administration of 40 mg/Kg in rats; type: functional, organism-based; details: Stomach
[13] = target: T1, Potassium-transporting ATPase (Rattus norvegicus); experiment: Effect in vivo on gastric H+/K+ -ATPase activity at 24 hrs following intraduodenal administration of 40 mg/Kg in rats; type: functional, organism-based; details: Stomach
[14] = target: T1, Potassium-transporting ATPase (Rattus norvegicus); experiment: Effect in vivo on gastric H+/K+ -ATPase activity at 3 hrs following intraduodenal administration of 40 mg/Kg in rats; type: functional, organism-based; details: Stomach

Chain of Potassium-transporting ATPase (P18434 whole entry): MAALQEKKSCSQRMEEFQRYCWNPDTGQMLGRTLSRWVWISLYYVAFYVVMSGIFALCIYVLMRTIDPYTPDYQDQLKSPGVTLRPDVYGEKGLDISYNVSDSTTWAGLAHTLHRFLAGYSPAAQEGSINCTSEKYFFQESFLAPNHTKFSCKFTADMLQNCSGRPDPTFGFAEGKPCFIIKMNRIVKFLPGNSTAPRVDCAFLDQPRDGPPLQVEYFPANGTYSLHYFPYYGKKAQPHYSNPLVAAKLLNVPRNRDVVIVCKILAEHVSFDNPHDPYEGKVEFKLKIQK
Chain of Potassium-transporting ATPase (P19156 whole entry): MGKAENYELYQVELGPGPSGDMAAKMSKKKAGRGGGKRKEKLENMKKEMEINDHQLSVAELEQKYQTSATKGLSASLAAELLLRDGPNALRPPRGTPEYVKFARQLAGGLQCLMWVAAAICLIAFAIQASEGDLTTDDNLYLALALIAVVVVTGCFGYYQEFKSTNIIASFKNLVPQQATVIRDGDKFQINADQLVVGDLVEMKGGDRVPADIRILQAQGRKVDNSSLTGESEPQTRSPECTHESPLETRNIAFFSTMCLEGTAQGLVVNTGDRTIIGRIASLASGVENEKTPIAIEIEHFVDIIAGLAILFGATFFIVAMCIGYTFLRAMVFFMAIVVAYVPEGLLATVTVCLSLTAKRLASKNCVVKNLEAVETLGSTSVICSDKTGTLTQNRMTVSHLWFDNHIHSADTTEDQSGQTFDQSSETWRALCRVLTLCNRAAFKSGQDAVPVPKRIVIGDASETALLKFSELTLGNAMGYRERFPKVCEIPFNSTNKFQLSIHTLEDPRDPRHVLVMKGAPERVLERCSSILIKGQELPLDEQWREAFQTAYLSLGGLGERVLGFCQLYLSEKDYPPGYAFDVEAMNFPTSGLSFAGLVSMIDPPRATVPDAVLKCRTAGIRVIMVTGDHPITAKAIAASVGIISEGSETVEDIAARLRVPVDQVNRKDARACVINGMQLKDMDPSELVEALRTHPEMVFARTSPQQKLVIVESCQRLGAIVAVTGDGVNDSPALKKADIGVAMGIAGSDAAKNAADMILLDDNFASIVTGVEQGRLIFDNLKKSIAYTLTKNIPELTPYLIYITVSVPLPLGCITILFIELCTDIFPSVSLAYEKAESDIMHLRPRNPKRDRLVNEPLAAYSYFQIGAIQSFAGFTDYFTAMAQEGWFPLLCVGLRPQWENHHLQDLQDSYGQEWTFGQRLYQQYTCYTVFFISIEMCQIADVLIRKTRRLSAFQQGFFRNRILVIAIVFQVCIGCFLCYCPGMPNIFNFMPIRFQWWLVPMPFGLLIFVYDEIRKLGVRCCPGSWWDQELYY

| Compound | IC50 [1] [µM] | inhibition [2] [%] | Control [3] [%] | Control [4] [%] | Control [5] [%] | Control [6] [%] | Control [7] [%] | Control [8] [%] | Control [9] [%] | Control [10] [%] | Control [11] [%] | Control [12] [%] | Control [13] [%] | Control [14] [%] |
| --- | --- | --- | --- | --- | --- | --- | --- | --- | --- | --- | --- | --- | --- | --- |
| Cc1cccnc1-n1c([S+]([O-])Cc2ccccc2N)nc2c1CCC2 (configuration not stated) | > 100 | 95 | 95.4 | 72.9 | 46 | 88.9 | 69.2 | 48.8 | 79.6 |  |  |  |  |  |
| COc1ccc2[nH]c([S+]([O-])Cc3ncc(C)c(OC)c3C)nc2c1 (configuration not stated) |  | 100 | 36.1 |  |  |  |  | 45.4 |  | 34.1 | 27.8 | 71.1 | 51.7 | 37.1 |
